Experimental data taken from EP0740252A2, “Apparatus, method, and standard curve for measuring clearance” (KUREHA KAGAKU KOGYO KABUSHIKI KAISHA, priority 1995, dated 1996).
Where “and” joins values, the source holds several entries; their conditions need not be identical. Identical values can stand only once.

Experiments:
[1] = Meglumine iothalamate clearance from one plasma sample by first standard function, dog; type: in vivo, female beagle dogs; settings: healthy dog 1919 (two tests), first standard function (Fig. 18), per blood collection time (20-90 min)
Method: A first standard function [CL × T - Cp/D curve] was formed following the same procedures as in Example 1. The first clearance calculation program 34 was executed. In this execution, the clearances of the four dogs (two tests were conducted for dog Nos. 1919 and 1367 at an interval of two months) in Example 12 were calculated by the first standard function (Fig. 18) obtained in Example 12, using the data for the respective blood collection times (except for the values obtained 5 min after the administration). More specifically, the ratio values of the meglumine iothalamate concentrations (Cp) in the plasma samples corresponding to the respective blood collection times to the meglumine iothalamate dose (D) were calculated, and the products of the clearance (CL) and the blood collection times (T) were calculated from the first standard function using the ratio values. The products were divided by the blood collection times (T), respectively, thereby obtaining the clearances (CL).

[2] = Meglumine iothalamate clearance by AUC method, dog; type: in vivo, female beagle dogs; settings: healthy dog 1919 (two tests at an interval of two months), 3% meglumine iothalamate solution 0.3 mℓ/kg i.v.
Method: A total of […] female beagle dogs (body weight: 8.5 to 14 kg) consisting of one healthy dog (dog No. 1919), three partially nephrectomized dogs (chronic renal failure model) (dog Nos. 1367, 1253, and 1104) were used.
A 3% inulin-containing iothalamate solution was administered once in the amount of 0.3 mℓ/kg to each beagle dog from its foreleg vein. The meglumine iothalamate in the 3% inulin-containing iothalamate solution was obtained by diluting a conray injection solution (60 W/V%) (meglumine iothalamate injection solution of the Japanese Pharmacopoeia, available from DAIICHI PHARMACEUTICAL CO., LTD.) with saline to adjust the concentration to 3%.
Blood collection operations were performed five times with intervals after the administration. The blood collection times were, e.g., 5 min, 20 min, 40 min, 60 min, and 90 min after the administration for the healthy dog, and, e.g., 5 min, 40 min, 80 min, 120 min, and 180 min after the administration for other dogs.
The concentration of meglumine iothalamate in the plasma was measured as follows. 400 µℓ of a 0.1N-HCl-methanol (1 : 9) solution mixture were added to 100 µℓ of a dog plasma sample, and the resultant solution was stirred well and subjected to centrifugal separation at 16,000 rpm for 10 min. The resultant supernatant was analyzed by liquid chromatography. […]

**Q.** Which results are given for `CNC(=O)c1c(I)c(NC(C)=O)c(I)c(C(=O)O)c1I` [Iothalamic Acid, N-methylglucamine-5-acetamido-2,4,6-triiodo-N-methylisophthalate]?
**A.** clearance ([1]; female, beagle, dog, plasma, intravenous, 0.3 mℓ/kg, read-out: Method of Present Invention: Clearance (2)): 52.1 mL/min; Method of Present Invention: Clearance (2) ([1]; blood collected at 20 min): 57.4 mL/min; Method of Present Invention: Clearance (2) ([1]; blood collected at 40 min): 53.0 mL/min; Method of Present Invention: Clearance (2) ([1]; blood collected at 50 min): 48.9 mL/min; Method of Present Invention: Clearance (2) ([1]; blood collected at 60 min): 52.5 mL/min; Method of Present Invention: Clearance (2) ([1]; blood collected at 70 min): 48.4 mL/min; Method of Present Invention: Clearance (2) ([1]; blood collected at 90 min): 42.0 mL/min and 43.9 mL/min; clearance ([2]; female, beagle, dog, plasma, iv, 0.3 mℓ/kg, read-out: Conventional Method: Clearance (1)): 45.6 mL/min; Conventional Method: Clearance (1) [2]: 49.1 mL/min
